The source made the active and inactive calls. How the calls were made is not given here.
What follows are compounds tested against Prostaglandin E2 receptor EP2 subtype (Homo sapiens) (UniProt P43116) (assay: EP2 receptor modulators, dose response, cell-based, human EP2, PGE2 EC50 shift (AID 1421)). Conditions: EP2-expressing cells, PGE2 EC50 shift by compound.
Prostaglandin E2 receptor EP2 subtype (Homo sapiens), sequence (P43116 whole entry, looked up): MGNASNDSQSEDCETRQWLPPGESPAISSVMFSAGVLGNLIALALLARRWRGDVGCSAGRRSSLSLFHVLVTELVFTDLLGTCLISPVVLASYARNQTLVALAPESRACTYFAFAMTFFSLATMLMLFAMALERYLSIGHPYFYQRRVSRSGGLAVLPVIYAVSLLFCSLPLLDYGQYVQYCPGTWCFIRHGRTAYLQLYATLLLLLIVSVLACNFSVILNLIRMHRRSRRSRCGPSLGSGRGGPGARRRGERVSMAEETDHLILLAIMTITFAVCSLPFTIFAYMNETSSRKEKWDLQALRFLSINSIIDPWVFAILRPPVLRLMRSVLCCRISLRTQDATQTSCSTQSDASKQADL
In the case of `CC(C)OC(=O)c1c(NC(=O)CCn2nnc3ccccc32)sc2c1CCCC2`, the outcome is reported as “active”.
With `CC(C)NC(=O)NC(=O)CSc1nnc(COc2ccccc2F)n1C(C)C1CC2CCC1C2` (stereo unspecified) the outcome was “active”.
In the case of `CC(C)OC(=O)c1c(NC(=O)c2ccco2)sc2c1CCCCC2`, the outcome is reported as “active”.
For `CCOC(=O)c1cnc(SC)nc1Sc1ccccc1Cl`, the outcome was “active”.
`CC(C)C1COC(c2cccn2Cc2ccccc2Cl)=N1` (stereo unspecified) was tested, and the outcome was “active”.
For `CCCCCc1ccc(-c2ccc(=O)[nH]n2)cc1`, the outcome was “active”.
`CCSc1cc(N2CCOCC2)nc(-c2ccc(Cl)cc2)n1` was tested, and the outcome was “active”.
In the case of `CC(C)CCn1c(=O)c2ccccc2c2ccccc2c1=O`, the outcome is reported as “active”.
In the case of `FC(F)(F)c1cc(-c2ccccc2)nc2nc(N3CCOCC3)sc12`, the outcome is reported as “active”.
With `Cc1ccc(NC2=C(C(=O)c3ccccc3)N(C)S(=O)(=O)c3ccccc32)cc1` the outcome was “active”.
With `COc1nc(-c2ccccc2)nnc1-c1ccccc1` the outcome was “active”.

Same assay, conditions: EP2-expressing cells, PGE2 EC50 shift by compound; measured here: PGE2 EC50 at 6.7 uM compound
`COc1ccc(N=N/C(=C\O)C(=O)c2cccs2)cc1` showed a PGE2 EC50 with compound of 1.42 nM.
For `CCCCc1nnc(SCCSc2nnc(CCCC)n2N)n1N`, the PGE2 EC50 with compound was 1 nM.
Compound `Cc1ccc(/C=N/N(Cc2ccccc2)c2ccccc2)o1` has a PGE2 EC50 with compound of 0.92 nM.
`c1ccc2c(-c3nc(C4CCCCC4)no3)cc(-c3ccncc3)nc2c1` gave a PGE2 EC50 with compound of 0.34 nM.
`Cc1cccnc1N(C(=O)Nc1cccc(Cl)c1)C1=NCC(C)(C)S1` showed a PGE2 EC50 with compound of 1.22 nM.
`Fc1ccccc1Nc1nc2c(s1)CCc1ccccc1-2` gave a PGE2 EC50 with compound of 1.03 nM.
In the case of `COC(=O)CC1C(C)(C)C(OC(C)=O)[C@@H]2[C@@H](OC(C)=O)[C@]34O[C@@]2(O)[C@]1(C)C3CC[C@]1(C)C4=CC(=O)O[C@H]1c1ccoc1` (stereo partly specified), the PGE2 EC50 with compound is reported as 0.74 nM.
`CCOC(=O)C1=C(CC)OC(N)=C(C#N)C1c1ccsc1` (stereo unspecified) showed a PGE2 EC50 with compound of 1.33 nM.
`O=c1oc2c3c4c(cc2c(C(F)(F)F)c1CCN1CCOCC1)CCCN4CCC3` was tested, and the PGE2 EC50 with compound was 0.83 nM.
`CCCCn1c(-c2csc3c2CCCC3)n[nH]c1=S` gave a PGE2 EC50 with compound of 1.25 nM.
With `CC(C)OC(=O)c1c(NC(=O)CCn2nnc3ccccc32)sc2c1CCCC2` the PGE2 EC50 with compound was 1 nM.
With `COC(=O)c1nc(NC(=O)C(C)(C)C)n[nH]1` the PGE2 EC50 with compound was 2.41 nM.
In the case of `Cc1noc(C)c1CSc1ncnc2sc3c(c12)CCCCC3`, the PGE2 EC50 with compound is reported as 1.22 nM.
`CCC(=O)N1CCN(c2nc(-c3ccccc3)c3c(c2C#N)CCCC3)CC1` was tested, and the PGE2 EC50 with compound was 0.91 nM.
`CCOC(=O)C1CCN(c2c(C(=O)c3ccccc3)cnc3ccc(CC)cc23)CC1` showed a PGE2 EC50 with compound of 0.91 nM.
`Cc1ccc2nc(-c3ccncc3)cc(-c3ccccc3)c2c1` gave a PGE2 EC50 with compound of 0.31 nM.
`Cc1cc(NC(=O)Cn2nnc3sc4c(c3c2=O)CCC(C(C)(C)C)C4)no1` (stereo unspecified) was tested, and the PGE2 EC50 with compound was 0.98 nM.
For `CC(C)NC(=O)NC(=O)CSc1nnc(COc2ccccc2F)n1C(C)C1CC2CCC1C2` (stereo unspecified), the PGE2 EC50 with compound was 1.06 nM.
`CC(C)OC(=O)c1c(NC(=O)c2ccco2)sc2c1CCCCC2` gave a PGE2 EC50 with compound of 0.74 nM.
`CCOP(=O)(OCC)c1nc(-c2ccccc2)oc1NCc1ccccc1` gave a PGE2 EC50 with compound of 1.04 nM.
In the case of `CN(/N=C\c1ccc(O)c(O)c1)c1nc(-c2ccccc2)cc(-c2ccccc2)n1`, the PGE2 EC50 with compound is reported as 1.22 nM.
Compound `COc1cc(NC(=S)NC(=O)c2cc(C)cc(C)c2)ccc1NC(=O)c1cccs1` has a PGE2 EC50 with compound of 2.54 nM.
`CCOC(=O)CSc1ncnc2c1sc1nc(N3CCOCC3)c3c(c12)CCCC3` showed a PGE2 EC50 with compound of 0.32 nM.
With `C=CCNC(=S)NNc1nc(Nc2ccccc2)nc(N2CCCCC2)n1` the PGE2 EC50 with compound was 1.42 nM.
With `CCOc1ccc(-c2nnc3n2N=C(c2ccc(OC)cc2)CS3)cc1` the PGE2 EC50 with compound was 0.5 nM.
With `CCOC(=O)c1c(NC(=O)CN2CCN(C(=O)c3ccco3)CC2)sc2c1CCCC2` the PGE2 EC50 with compound was 0.85 nM.
For `COC(=O)c1ccc(-n2nc(C(F)(F)F)c3c2-c2ccoc2CC3)cc1`, the PGE2 EC50 with compound was 0.79 nM.
Compound `CCOC(=O)c1oc2ccccc2c1NC(=O)c1cccc(OC)c1OC` has a PGE2 EC50 with compound of 0.98 nM.
Work on `CCOC(=O)C1CCCN(C(=O)c2ccc(C)cc2O)C1` (stereo unspecified) yielded a PGE2 EC50 with compound of 1.44 nM.
`CCOC(=O)c1cnc(SC)nc1Sc1ccccc1Cl` gave a PGE2 EC50 with compound of 1.07 nM.
Work on `COC(=O)c1c(NC(=O)Cc2cccs2)sc2c1CCCC2` yielded a PGE2 EC50 with compound of 1.02 nM.
For `CC(C)C1COC(c2cccn2Cc2ccccc2Cl)=N1` (stereo unspecified), the PGE2 EC50 with compound was 0.95 nM.
With `COc1ccc(-n2c(COc3cccc4ccccc34)nnc2SCC#N)cc1` the PGE2 EC50 with compound was 1.19 nM.
In the case of `CCCCCc1ccc(-c2ccc(=O)[nH]n2)cc1`, the PGE2 EC50 with compound is reported as 1.44 nM.
In the case of `O=C(CNC1CCCCC1)N1CCC2(CC1)OCCO2`, the PGE2 EC50 with compound is reported as 1.35 nM.
In the case of `N#Cc1c(NC(=O)CSc2n[nH]c(Cc3ccccc3)n2)oc(-c2ccccc2)c1-c1ccccc1`, the PGE2 EC50 with compound is reported as 1.4 nM.
In the case of `Cc1ccc(OCC(=O)NNC(=O)C2CCN(c3ncccn3)CC2)cc1`, the PGE2 EC50 with compound is reported as 0.81 nM.
`O=C(Nc1ccccc1N1CCCCC1)c1cccc(F)c1` was tested, and the PGE2 EC50 with compound was 0.95 nM.
In the case of `COc1ccc2c(COC(=O)c3n[nH]c4ccccc34)cc(=O)oc2c1`, the PGE2 EC50 with compound is reported as 1.31 nM.
`CCOc1ccc(Cl)cc1S(=O)(=O)n1cnc2cc(C)c(C)cc21` showed a PGE2 EC50 with compound of 1.16 nM.
In the case of `Nc1cccc(OCc2nc(N)nc(N)c2-c2ccc(Cl)cc2)c1`, the PGE2 EC50 with compound is reported as 1.24 nM.
Compound `Cc1ccc(S(=O)(=O)N2c3ccccc3OCC2C(C)(C)C)cc1` (stereo unspecified) has a PGE2 EC50 with compound of 2.69 nM.
`c1ccn(-c2ncnc3sc4c(c23)CCCC4)c1` showed a PGE2 EC50 with compound of 1.45 nM.
`Cc1cccc(/N=C/c2c(O)ccc3oc4c(c23)CCCC4)n1` gave a PGE2 EC50 with compound of 1.04 nM.
With `COc1ccc(C2=Nn3c(nnc3-c3ccc(OC)cc3)SC2)cc1` the PGE2 EC50 with compound was 1.28 nM.

Reference: PubChem BioAssay AID1421 (Emory University Molecular Libraries Screening Center, 2008)
